Where “and” joins values, the source holds several entries; their conditions need not be identical. Equal entries are not always repeated. Where two headings read alike, the source gives them in different places.
Assays:
BasC S282A mutant = assay: [3H]L-alanine transport in BasC S282A proteoliposomes; type: biochemical, Carnobacterium sp AT7; conditions: BasC S282A in PLs, WT = 100, n=1-3 and mean
Procedure: BasC was overexpressed as a C-terminal fusion with GFP in E. coli BL21 Star (DE3) cells grown in LB media. Single point mutations (Supplementary Table 2) were introduced using the QuikChange site-directed mutagenesis kit (Stratagene, San Diego, CA). All mutations were verified by sequencing. Expression was induced with 0.1 mM isopropyl-ß-D-thiogalactopyranoside at 37 °C for 22 h. Cells were harvested at 5000 × g for 15 min at 4 °C and stored at −80 °C until use. Cell pellets were thawed and resuspended in 20 mM Tris-Base, 150 mM NaCl, pH 7.4. […]
For uptake experiments, the desired intraliposomal amino acid concentration was added to the PL suspension, which was then subjected to three freeze/thaw cycles. […] Filters were then washed twice with 2 ml of stop buffer and dried, and the trapped radioactivity was counted. Transport measured in PLs containing no amino acid was subtracted from each data point to calculate the net exchange. […] BasC protein in PLs was determined by Coomassie blue staining in SDS-PAGE gels compared with known amounts of BasC in DDM micelles, determined by BCA assay (Pierce, Rockford, IL) and loaded in the same gel.

hAsc-1 S325A mutant = biological target: T1, hAsc-1 S325A mutant (Homo sapiens, UniProt Q9NS82, S325A); assay: [3H]L-alanine uptake in HeLa cells, hAsc-1 S325A; type: cell-based; conditions: WT = 100, n=1-3 and mean
T1 construct: expressed in transfected cells; host or cells: HeLa
T1 sequence (Q9NS82 1-523 S325A): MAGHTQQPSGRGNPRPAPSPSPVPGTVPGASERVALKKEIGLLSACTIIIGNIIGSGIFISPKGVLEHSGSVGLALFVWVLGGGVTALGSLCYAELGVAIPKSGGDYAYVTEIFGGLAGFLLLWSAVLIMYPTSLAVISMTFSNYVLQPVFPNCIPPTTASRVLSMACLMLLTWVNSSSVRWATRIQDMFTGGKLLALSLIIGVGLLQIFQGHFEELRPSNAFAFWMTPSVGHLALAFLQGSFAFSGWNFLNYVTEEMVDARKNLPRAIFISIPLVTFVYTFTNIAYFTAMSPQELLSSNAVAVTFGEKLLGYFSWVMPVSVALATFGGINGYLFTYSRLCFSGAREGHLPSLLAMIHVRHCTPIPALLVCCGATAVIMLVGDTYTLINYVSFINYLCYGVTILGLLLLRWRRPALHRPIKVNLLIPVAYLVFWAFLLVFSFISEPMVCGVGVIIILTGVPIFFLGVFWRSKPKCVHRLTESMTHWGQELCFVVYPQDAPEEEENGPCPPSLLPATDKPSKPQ
T1 sequence (P08195 1-529 partner): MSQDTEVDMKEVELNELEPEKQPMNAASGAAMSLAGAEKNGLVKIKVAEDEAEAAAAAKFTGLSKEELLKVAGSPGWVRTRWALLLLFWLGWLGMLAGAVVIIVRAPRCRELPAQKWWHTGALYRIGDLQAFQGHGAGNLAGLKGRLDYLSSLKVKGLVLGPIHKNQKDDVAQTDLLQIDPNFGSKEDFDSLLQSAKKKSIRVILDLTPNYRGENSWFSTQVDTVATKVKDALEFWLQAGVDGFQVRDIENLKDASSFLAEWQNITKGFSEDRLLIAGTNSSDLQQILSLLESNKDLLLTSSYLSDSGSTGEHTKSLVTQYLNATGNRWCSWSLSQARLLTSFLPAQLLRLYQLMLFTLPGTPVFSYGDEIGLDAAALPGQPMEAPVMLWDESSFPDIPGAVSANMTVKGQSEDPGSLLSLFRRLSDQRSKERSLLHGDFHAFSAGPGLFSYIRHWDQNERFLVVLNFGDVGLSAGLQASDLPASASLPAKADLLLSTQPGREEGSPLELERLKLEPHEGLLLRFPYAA
Description: All mutations were verified by sequencing.

BasC wild-type = assay: [3H]L-alanine transport (influx, efflux, exchange) in BasC proteoliposomes; type: biochemical, Carnobacterium sp AT7; conditions: for V: 4 mM L-alanine inside PLs, without Nb74
Procedure: BasC-GFP protein was reconstituted in E. coli polar lipids (Sigma-Aldrich, Madrid, Spain), as previously described. Lipids were dried under N2 and suspended in reconstitution buffer (20 mM Tris-Base, 150 mM NaCl, pH 7.4). The suspension was sonicated to clarity and purified BasC protein was added to reach the desired protein to lipid ratio of 1:100 (w:w). To destabilize the liposomes, 1.25% ß-D-octylglucoside was added and the mixture was incubated on ice with occasional agitation for 5 min. DDM and ß-D-octylglucoside were removed by dialysis for 40 h at 4 °C against 100 volumes of dialysis buffer. Proteoliposome (PL) suspensions were frozen in liquid N2 and stored at −80 °C until use.
For uptake experiments, the desired intraliposomal amino acid concentration was added to the PL suspension, which was then subjected to three freeze/thaw cycles. The extraliposomal amino acid content was then removed by ultracentrifugation (100,000 × g for 1 h at 4 °C) and PLs were resuspended to one-third of the initial volume with reconstitution buffer. Amino acid uptake assays were initiated after mixing 10 μl of cold PLs with 180 μl of transport buffer (20 mM Tris-Base, 150 mM NaCl, pH 7.4 plus 0.5–1 µCi/180 µl of radiolabeled L-amino acid (Perkin Elmer, Waltham, MA)) supplemented with the unlabeled amino acid to the desired concentration. This mixture was then incubated at room temperature for the indicated periods. […] Filters were then washed twice with 2 ml of stop buffer and dried, and the trapped radioactivity was counted. Transport measured in PLs containing no amino acid was subtracted from each data point to calculate the net exchange. […] BasC protein in PLs was determined by Coomassie blue staining in SDS-PAGE gels compared with known amounts of BasC in DDM micelles, determined by BCA assay (Pierce, Rockford, IL) and loaded in the same gel.

C[C@H](N)C(=O)O [L-alanine]
10 µM [3H]L-alanine/4 mM L-alanine exchange normalized to wild-type (BasC S282A mutant): 124.06 and 127.02 and 133.54
10 µM [3H]L-alanine/4 mM L-alanine exchange normalized to wild-type (BasC S282A mutant; mean): 128.21
transport of 10 µM [3H]L-alanine normalized to wild-type (hAsc-1 S325A mutant): 135.06 and 126.01 and 130.11
transport of 10 µM [3H]L-alanine normalized to wild-type (hAsc-1 S325A mutant; mean): 130.39
saturation of the transporter at 4 mM intraliposomal L-alanine (BasC wild-type; BasC wild-type): about 80%
V/[L-Ala] (BasC wild-type; Eadie-Hofstee, L-alanine 800 μM, with 5 µM Nb74, n=1-3 and mean): 0.010 pmol µg prot-1 s-1µM-1
Km (BasC wild-type; L-alanine concentrations up to 800 µM, absence of Nb74, read-out: extracellular Km): 65 ± 12 µM
V (BasC wild-type; external [3H]L-alanine 100 μM, n=1-3 and mean): 5.346 pmol L-Ala μg BasC-1 s-1 and 5.124 pmol L-Ala μg BasC-1 s-1 and 4.879 pmol L-Ala μg BasC-1 s-1
V (BasC wild-type; external [3H]L-alanine 200 μM, n=1-3 and mean): 7.346 pmol L-Ala μg BasC-1 s-1 and 6.582 pmol L-Ala μg BasC-1 s-1 and 6.938 pmol L-Ala μg BasC-1 s-1
V (BasC wild-type; external [3H]L-alanine 400 μM, n=1-3 and mean): 7.143 pmol L-Ala μg BasC-1 s-1 and 6.357 pmol L-Ala μg BasC-1 s-1 and 9.257 pmol L-Ala μg BasC-1 s-1
Km (BasC wild-type; extracellular side, wild-type, read-out: Km (o)): 53.7 ± 3.97 µM
Km (BasC wild-type; full range kinetics inhibited by 5 µM Nb74, read-out: extracellular Km): 46 ± 9 µM
Km (BasC wild-type; intracellular side, wild-type, read-out: Km (i)): 2220 ± 150 µM
Vmax (BasC wild-type; wild-type): 6.37 ± 0.70 pmols L-alanine µg protein^−1 s^−1
